Measurements reported in patent publication US20230065740A1, “CYCLIN-DEPENDENT KINASE INHIBITORS” (SPV THERAPEUTICS INC., priority 2018, published 2023).
Several values for one entry are separate records, joined by “and”; a condition that tells them apart may be missing. Equal values may be shown once. Read-outs that look alike come from different tables or passages of the source.

Legend:
CDK2-CYCLINA = target: T1, CDK2-CYCLINA (Homo sapiens, UniProt P24941); assay: Microfluidic LabChip kinase inhibition assay, CDK2-CyclinA; format: biochemical; conditions: 50 μM ATP
T1 construct: purchased Millipore

CDK9-CYCLINT1 = target: T2, CDK9-CYCLINT1 (Homo sapiens, UniProt P50750); assay: Microfluidic LabChip kinase inhibition assay, CDK9-CyclinT1; format: biochemical
T2 construct: purchased Carna
T2 sequence (P50750 whole entry): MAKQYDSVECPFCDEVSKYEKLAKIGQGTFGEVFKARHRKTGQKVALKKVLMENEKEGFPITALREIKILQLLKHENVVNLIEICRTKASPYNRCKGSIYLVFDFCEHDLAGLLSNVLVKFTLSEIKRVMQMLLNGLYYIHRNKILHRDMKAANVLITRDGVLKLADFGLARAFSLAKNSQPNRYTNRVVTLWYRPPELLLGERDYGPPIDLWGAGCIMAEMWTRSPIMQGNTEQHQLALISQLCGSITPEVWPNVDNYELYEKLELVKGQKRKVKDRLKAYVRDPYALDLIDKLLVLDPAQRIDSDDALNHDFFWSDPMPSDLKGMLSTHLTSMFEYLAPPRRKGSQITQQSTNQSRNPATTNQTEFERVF
T2 sequence (O60563 whole entry partner): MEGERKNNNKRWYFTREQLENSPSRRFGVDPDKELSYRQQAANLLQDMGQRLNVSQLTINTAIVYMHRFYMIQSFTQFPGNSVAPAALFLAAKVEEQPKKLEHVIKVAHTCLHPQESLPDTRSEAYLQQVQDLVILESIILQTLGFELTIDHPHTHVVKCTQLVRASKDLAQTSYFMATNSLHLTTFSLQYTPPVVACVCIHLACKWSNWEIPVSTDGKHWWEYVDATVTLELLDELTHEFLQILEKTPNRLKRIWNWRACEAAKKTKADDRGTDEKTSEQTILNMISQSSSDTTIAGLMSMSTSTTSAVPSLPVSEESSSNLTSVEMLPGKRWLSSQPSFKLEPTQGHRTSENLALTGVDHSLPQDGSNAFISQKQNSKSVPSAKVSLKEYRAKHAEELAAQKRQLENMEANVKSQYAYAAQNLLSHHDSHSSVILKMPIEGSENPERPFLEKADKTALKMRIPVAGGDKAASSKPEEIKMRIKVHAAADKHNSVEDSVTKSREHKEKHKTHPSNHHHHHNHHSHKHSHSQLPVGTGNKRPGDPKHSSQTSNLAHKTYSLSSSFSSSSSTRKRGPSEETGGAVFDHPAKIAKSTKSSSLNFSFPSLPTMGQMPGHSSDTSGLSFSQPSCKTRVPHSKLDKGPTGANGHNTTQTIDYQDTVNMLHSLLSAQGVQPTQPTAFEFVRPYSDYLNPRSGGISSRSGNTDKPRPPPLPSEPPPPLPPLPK

CDK1/B = CDK1/B (Homo sapiens, UniProt P06493); assay: Additional inhibition assay, CDK1/B; format: biochemical
Chain of CDK1/B (P06493 whole entry): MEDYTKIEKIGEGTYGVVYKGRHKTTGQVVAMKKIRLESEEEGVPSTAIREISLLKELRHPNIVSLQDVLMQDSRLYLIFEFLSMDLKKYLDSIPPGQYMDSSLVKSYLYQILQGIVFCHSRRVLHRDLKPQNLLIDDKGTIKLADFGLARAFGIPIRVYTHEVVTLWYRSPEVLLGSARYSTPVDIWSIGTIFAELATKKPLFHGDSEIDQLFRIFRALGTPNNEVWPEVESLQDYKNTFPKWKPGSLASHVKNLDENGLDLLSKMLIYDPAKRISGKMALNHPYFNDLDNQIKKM
Chain of CDK1/B (P14635 whole entry partner): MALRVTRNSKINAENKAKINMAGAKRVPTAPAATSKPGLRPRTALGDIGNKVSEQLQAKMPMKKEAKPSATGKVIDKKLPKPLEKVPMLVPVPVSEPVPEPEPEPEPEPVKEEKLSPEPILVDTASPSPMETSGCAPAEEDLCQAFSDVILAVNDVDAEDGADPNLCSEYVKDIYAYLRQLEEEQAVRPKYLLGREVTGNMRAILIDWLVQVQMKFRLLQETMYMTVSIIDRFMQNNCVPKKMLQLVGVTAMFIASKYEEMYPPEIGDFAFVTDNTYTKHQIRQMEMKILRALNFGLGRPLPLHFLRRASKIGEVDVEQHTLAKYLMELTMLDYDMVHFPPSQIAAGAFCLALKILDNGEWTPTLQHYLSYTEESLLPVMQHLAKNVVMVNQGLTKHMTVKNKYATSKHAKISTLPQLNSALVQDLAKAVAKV

CDK7 CyclinH = CDK7 CyclinH (Homo sapiens, UniProt P50613); assay: Additional inhibition assay, CDK7 CyclinH; format: biochemical
Chain of CDK7 CyclinH (P50613 whole entry): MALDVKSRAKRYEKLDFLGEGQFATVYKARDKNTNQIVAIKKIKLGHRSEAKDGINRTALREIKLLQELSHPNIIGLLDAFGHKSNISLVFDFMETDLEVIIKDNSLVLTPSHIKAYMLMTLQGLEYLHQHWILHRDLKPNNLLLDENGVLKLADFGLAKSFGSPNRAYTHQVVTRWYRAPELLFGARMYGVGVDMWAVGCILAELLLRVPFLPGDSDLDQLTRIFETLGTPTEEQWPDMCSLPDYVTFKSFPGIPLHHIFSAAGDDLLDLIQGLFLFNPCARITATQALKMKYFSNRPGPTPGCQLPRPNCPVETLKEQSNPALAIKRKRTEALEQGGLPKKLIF
Chain of CDK7 CyclinH (P51946 whole entry partner): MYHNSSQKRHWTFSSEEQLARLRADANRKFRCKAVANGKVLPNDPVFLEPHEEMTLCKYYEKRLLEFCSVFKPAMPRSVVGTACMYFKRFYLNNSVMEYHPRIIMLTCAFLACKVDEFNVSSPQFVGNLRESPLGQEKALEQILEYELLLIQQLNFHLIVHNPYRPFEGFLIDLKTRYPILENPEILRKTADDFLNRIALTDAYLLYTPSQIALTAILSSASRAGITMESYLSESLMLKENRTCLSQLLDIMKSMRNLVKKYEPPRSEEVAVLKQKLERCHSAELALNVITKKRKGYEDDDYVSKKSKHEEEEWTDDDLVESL
Chain of CDK7 CyclinH (P51948 whole entry partner): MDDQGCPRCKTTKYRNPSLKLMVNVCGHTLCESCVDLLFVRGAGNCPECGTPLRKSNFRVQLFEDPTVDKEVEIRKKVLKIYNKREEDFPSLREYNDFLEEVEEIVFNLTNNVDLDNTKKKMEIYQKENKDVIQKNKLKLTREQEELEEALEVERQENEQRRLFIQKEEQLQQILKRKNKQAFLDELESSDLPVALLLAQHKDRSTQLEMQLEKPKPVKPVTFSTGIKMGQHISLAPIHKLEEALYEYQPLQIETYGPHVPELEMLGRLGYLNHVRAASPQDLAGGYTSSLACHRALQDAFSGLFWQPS

CDK4-CYCLIND1 = CDK4-CYCLIND1 (Homo sapiens, UniProt P11802); assay: Microfluidic LabChip kinase inhibition assay, CDK4-CyclinD1; conditions: 200 μM ATP
Chain of CDK4-CYCLIND1 (P11802 whole entry): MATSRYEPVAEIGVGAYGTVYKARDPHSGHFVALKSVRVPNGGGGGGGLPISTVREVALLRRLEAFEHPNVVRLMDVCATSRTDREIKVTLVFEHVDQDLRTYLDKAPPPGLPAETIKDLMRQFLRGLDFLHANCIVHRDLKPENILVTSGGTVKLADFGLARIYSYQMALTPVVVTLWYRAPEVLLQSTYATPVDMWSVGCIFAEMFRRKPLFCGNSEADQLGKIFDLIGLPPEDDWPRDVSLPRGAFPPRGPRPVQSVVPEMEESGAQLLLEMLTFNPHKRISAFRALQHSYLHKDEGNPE
Chain of CDK4-CYCLIND1 (P24385 whole entry partner): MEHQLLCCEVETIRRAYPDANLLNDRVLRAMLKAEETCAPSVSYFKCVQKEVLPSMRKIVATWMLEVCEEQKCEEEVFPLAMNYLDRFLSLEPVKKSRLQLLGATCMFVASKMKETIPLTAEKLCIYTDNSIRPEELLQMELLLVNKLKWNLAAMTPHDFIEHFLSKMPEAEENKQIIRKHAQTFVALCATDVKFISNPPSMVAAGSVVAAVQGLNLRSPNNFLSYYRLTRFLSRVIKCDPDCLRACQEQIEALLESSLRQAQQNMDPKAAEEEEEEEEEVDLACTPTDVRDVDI
Procedure: Inhibition assays were performed using microfluidic LabChip 300 Drug Discovery System from Caliper Life Sciences. […] The assay has a total volume of 10 μL consisting of 5 μL of enzyme and buffer and 5 μL of substrate and buffer. The test compounds were diluted in 100% dimethylsulfoxide (DMSO) using 3-fold dilution steps. […] Compounds were tested in a single well for each dilution and the final concentration of DMSO was maintained at 1%.
The assay buffer contained 100 mM HEPES, pH 7.5, 0.01% Triton X-100, 0.1% bovine serum albumin (BSA), 5 mM MgCl2; 1 mM dithiothreitol (DTT), 10 μM sodium orthovanadate, and 10 μM β-glycerophosphate.
The assay was conducted by adding 5 μL of enzyme, adenosine triphosphate (ATP) and buffer to an assay plate. A 100 nL aliquot of the diluted compounds were added to the plate. The assay was initiated by the addition of 5 μL of phosphoenolpyruvate substrate (PEP) in buffer. […] The reaction was terminated by the addition of EDTA. The plates were analyzed using a Caliper LabChip 3000.

CDK6-CYCLIND3 = target: T3, CDK6-CYCLIND3 (Homo sapiens, UniProt Q00534); assay: Microfluidic LabChip kinase inhibition assay, CDK6-CyclinD3; format: biochemical; conditions: 300 μM ATP
T3 construct: purchased Carna
T3 sequence (Q00534 whole entry): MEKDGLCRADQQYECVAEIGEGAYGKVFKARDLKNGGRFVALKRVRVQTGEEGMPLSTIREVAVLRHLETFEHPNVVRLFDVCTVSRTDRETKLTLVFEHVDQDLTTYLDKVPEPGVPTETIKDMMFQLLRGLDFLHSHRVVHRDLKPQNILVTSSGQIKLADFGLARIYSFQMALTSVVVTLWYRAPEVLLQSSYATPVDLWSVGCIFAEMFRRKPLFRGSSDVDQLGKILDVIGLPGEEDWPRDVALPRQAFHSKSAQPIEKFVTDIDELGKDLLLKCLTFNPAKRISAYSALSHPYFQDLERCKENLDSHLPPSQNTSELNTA
T3 sequence (P30281 whole entry partner): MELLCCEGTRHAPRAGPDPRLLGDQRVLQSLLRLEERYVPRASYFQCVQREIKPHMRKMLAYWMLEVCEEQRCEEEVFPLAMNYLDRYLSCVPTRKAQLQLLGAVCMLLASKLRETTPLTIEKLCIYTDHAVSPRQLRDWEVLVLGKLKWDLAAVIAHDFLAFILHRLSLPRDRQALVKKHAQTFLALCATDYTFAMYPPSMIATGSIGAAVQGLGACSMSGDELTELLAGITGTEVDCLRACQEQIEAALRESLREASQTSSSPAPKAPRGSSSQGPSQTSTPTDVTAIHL

[1] = CDK4 CyclinD1 IC50 (μM), Table 3a, second value in parentheses on the next line
[2] = CDK4 CyclinD1 IC50 (μM), Table 3b, second value in parentheses on the next line
[3] = Table 3a, 10 μM ATP, read-out: CDK9 CyclinT1 IC50
[4] = Table 2, 2 nM enzyme, read-out: CDK6 IC50
[5] = CDK4 IC50 (μM), Table 2, 1 nM enzyme
[6] = Table 3a, read-out: CDK6 CyclinD3 IC50
[7] = Table 3b, read-out: CDK6 CyclinD3 IC50

Row | Compound | IC50 (CDK2-CYCLINA; Table 3a) | IC50 (CDK2-CYCLINA; Table 3b) | IC50 (CDK1/B; Table 3a) | IC50 (CDK1/B; Table 3b) | IC50 (CDK7 CyclinH; Table 3a) | IC50 (CDK7 CyclinH; Table 3b) | IC50 (CDK4-CYCLIND1; [1]) | IC50 (CDK4-CYCLIND1; [2]) | IC50 (CDK9-CYCLINT1; [3]) | IC50 (CDK6-CYCLIND3; [4]) | IC50 (CDK4-CYCLIND1; [5]) | IC50 (CDK6-CYCLIND3; [6]) | IC50 (CDK6-CYCLIND3; [7]) | IC50 (CDK9-CYCLINT1) | IC50 (CDK6-CYCLIND3; CDK6 CyclinD3 IC50 (μM), Table 3a) | IC50 (CDK6-CYCLIND3; CDK6 CyclinD3 IC50 (μM), Table 3b)
1 | CN1CCN(c2ccc(Nc3ncc4c(n3)N(C3CCCC3)C3(CC(=O)NC3=O)C4)cc2)CC1 (single isomer, unassigned) [Compound C136, 7′-cyclopentyl-2′-((4-(4-methylpiperazin-1-yl)phenyl)amino)-5′,7′-dihydrospiro[pyrrolidine-3,6′-pyrrolo[2,3-d]pyrimidine]-2,5-dione] | 1540 nM | 1540 nM | 1270 nM | 1270 nM | 5740 nM | 5740 nM | 0.0257 µM | 0.0257 µM |  |  |  |  |  | 80.5 nM |  | 
2 | CN1CCN(c2ccc(Nc3ncc4c(n3)N(C3CCCC3)C3(CC(=O)NC3=O)C4)cc2)CC1 (single isomer, unassigned) [Compound C137, 7′-cyclopentyl-2′-((4-(4-methylpiperazin-1-yl)phenyl)amino)-5′,7′-dihydrospiro[pyrrolidine-3,6′-pyrrolo[2,3-d]pyrimidine]-2,5-dione] | 3330 nM | 3330 nM | 1650 nM | 1650 nM | 585 nM | 585 nM | 0.202 µM | 0.202 µM | 367 nM |  |  |  |  |  |  | 
3 | CN1CCN(c2ccc(Nc3ncc4c(n3)N(C3CCCC3)C3(CCNC3=O)C4)cc2F)CC1 (single isomer, unassigned) [Compound C197, 7′-cyclopentyl-2′-((3-fluoro-4-(4-methylpiperazin-1-yl)phenyl)amino)-5′,7′-dihydrospiro[pyrrolidine-3,6′-pyrrolo[2,3-d]pyrimidin]-2-one] | 2100 nM | 2100 nM |  |  | 22100 nM | 22100 nM | 0.0517 µM and 0.028 µM | 0.0517 µM and 0.028 µM |  |  |  |  |  | 46.6 nM | 0.258 µM | 0.258 µM
4 | O=C1NCCC12C(=O)N(C1CCCC1)c1nc(Nc3ccc(N4CCNCC4)c(F)c3)ncc12 (stereo not drawn) [Compound C102, 7′-cyclopentyl-2′-((3-fluoro-4-(piperazin-1-yl)phenyl)amino)spiro[pyrrolidine-3,5′-pyrrolo[2,3-d]pyrimidine]-2,6′(7′H)-dione] |  |  |  |  |  |  |  |  |  | 25.5 µM | 21.8 µM |  |  |  |  | 
5 | CN1CCN(c2ccc(Nc3ncc4c(n3)N(C3CCCC3)C(=O)C43CCNC3=O)cc2F)CC1 (stereo not drawn) [Compound C103, 7′-cyclopentyl-2′-((3-fluoro-4-(4-methylpiperazin-1-yl)phenyl)amino)spiro[pyrrolidine-3,5′-pyrrolo[2,3-d]pyrimidine]-2,6′(7′H)-dione] |  |  |  |  |  |  |  |  |  | 50.7 µM | 20 µM |  |  |  |  | 
6 | CN(C)[C@H]1CCN(c2ccc(Nc3ncc4c(n3)N(C3CCCC3)C(=O)C43CCNC3=O)cc2F)C1 (stereo partly drawn) [Compound C105, 7′-cyclopentyl-2′-((4-((S)-3-(dimethylamino)pyrrolidin-1-yl)-3-fluorophenyl)amino)spiro[pyrrolidine-3,5′-pyrrolo[2,3-d]pyrimidine]-2,6′(7′H)-dione] |  |  |  |  |  |  |  |  |  | 29.7 µM | 11.8 µM |  |  |  |  | 
7 | O=C1NCCC12C(=O)N(C1CCCC1)c1nc(Nc3ccc(N4CCC(N5CCOCC5)CC4)c(F)c3)ncc12 (stereo not drawn) [Compound C106, 7′-cyclopentyl-2′-((3-fluoro-4-(4-morpholinopiperidin-1-yl)phenyl)amino)spiro[pyrrolidine-3,5′-pyrrolo[2,3-d]pyrimidine]-2,6′(7′H)-dione] |  |  |  |  |  |  |  |  |  | 14.7 µM | 7.35 µM |  |  |  |  | 
8 | O=C1NCCC12Cc1cnc(Nc3ccc(N4CC5(CNC5)C4)c(F)c3)nc1N2C1CCCC1 (stereo not drawn) [Compound C107, 7′-cyclopentyl-2′-((3-fluoro-4-(2,6-diazaspiro[3.3]heptan-2-yl)phenyl)amino)-5′,7′-dihydrospiro[pyrrolidine-3,6′-pyrrolo[2,3-d]pyrimidin]-2-one] |  |  |  |  |  |  |  |  |  | 0.335 µM | 0.0866 µM |  |  |  |  | 
9 | CN(C)CCOc1ccc(Nc2ncc3c(n2)N(C2CCCC2)C2(CCNC2=O)C3)cc1 (stereo not drawn) [Compound C108, 7′-cyclopentyl-2′-((4-(2-(dimethylamino)ethoxy)phenyl)amino)-5′,7′-dihydrospiro[pyrrolidine-3,6′-pyrrolo[2,3-d]pyrimidin]-2-one] | > 10000 nM | > 10000 nM | 6350 nM | 6350 nM | > 10000 nM | > 10000 nM | 0.124 µM | 0.124 µM | 21 nM |  |  |  |  |  |  | 
10 | CN1CCN(c2ccc(Nc3ncc4c(n3)N(C3CCCC3)C3(CCNC3=O)C4)cc2)CC1 (stereo not drawn) [Compound C115, 7′-cyclopentyl-2′-((4-(4-methylpiperazin-1-yl)phenyl)amino)-5′,7′-dihydrospiro[pyrrolidine-3,6′-pyrrolo[2,3-d]pyrimidin]-2-one] | > 10000 nM | > 10000 nM | 9110 nM | 9110 nM | > 10000 nM | > 10000 nM | 0.116 µM | 0.116 µM | 149 nM |  |  |  |  |  |  | 

Continued, in another order:

Row | IC50 (CDK2-CYCLINA; Table 3a) | IC50 (CDK2-CYCLINA; Table 3b) | IC50 (CDK1/B; Table 3a) | IC50 (CDK1/B; Table 3b) | IC50 (CDK7 CyclinH; Table 3a) | IC50 (CDK7 CyclinH; Table 3b) | IC50 (CDK4-CYCLIND1; [1]) | IC50 (CDK4-CYCLIND1; [2]) | IC50 (CDK9-CYCLINT1; [3]) | IC50 (CDK6-CYCLIND3; [4]) | IC50 (CDK4-CYCLIND1; [5]) | IC50 (CDK6-CYCLIND3; [6]) | IC50 (CDK6-CYCLIND3; [7]) | Compound | IC50 (CDK9-CYCLINT1) | IC50 (CDK6-CYCLIND3; CDK6 CyclinD3 IC50 (μM), Table 3a) | IC50 (CDK6-CYCLIND3; CDK6 CyclinD3 IC50 (μM), Table 3b)
11 | 4900 nM | 4900 nM | 3820 nM | 3820 nM | > 10000 nM | > 10000 nM | 0.0264 µM | 0.0264 µM | 16 nM |  |  |  |  | CC(C)N1CCN(c2ccc(Nc3ncc4c(n3)N(C3CCCC3)C3(CCNC3=O)C4)cc2F)CC1 (stereo not drawn) [Compound C118, 7′-cyclopentyl-2′-((3-fluoro-4-(4-isopropylpiperazin-1-yl)phenyl)amino)-5′,7′-dihydrospiro[pyrrolidine-3,6′-pyrrolo[2,3-d]pyrimidin]-2-one] |  |  | 
12 | > 10000 nM | > 10000 nM | > 10000 nM | > 10000 nM | > 10000 nM | > 10000 nM | 0.374 µM | 0.374 µM | 132 nM |  |  |  |  | Cc1cc(Nc2ncc3c(n2)N(C2CCCC2)C2(CCNC2=O)C3)ccc1N1CCN(C(C)C)CC1 (stereo not drawn) [Compound C121, 7′-cyclopentyl-2′-((4-(4-isopropylpiperazin-1-yl)-3-methylphenyl)amino)-5′,7′-dihydrospiro[pyrrolidine-3,6′-pyrrolo[2,3-d]pyrimidin]-2-one] |  |  | 
13 | > 10000 nM | > 10000 nM | > 10000 nM | > 10000 nM | > 10000 nM | > 10000 nM | 0.955 µM | 0.955 µM | 292 nM |  |  |  |  | COc1cc(Nc2ncc3c(n2)N(C2CCCC2)C2(CCNC2=O)C3)ccc1N1CCN(C)CC1 (stereo not drawn) [Compound C123, 7′-cyclopentyl-2′-((3-methoxy-4-(4-methylpiperazin-1-yl)phenyl)amino)-5′,7′-dihydrospiro[pyrrolidine-3,6′-pyrrolo[2,3-d]pyrimidin]-2-one] |  |  | 
14 | 2280 nM | 2280 nM | 1780 nM | 1780 nM | 8100 nM | 8100 nM |  |  |  |  |  |  |  | CC(C)N1CCN(c2ccc(Nc3ncc4c(n3)N(C3CCCC3)C3(CC(=O)NC3=O)C4)cc2)CC1 (stereo not drawn) [Compound C134, 7′-cyclopentyl-2′-((4-(4-isopropylpiperazin-1-yl)phenyl)amino)-5′,7′-dihydrospiro[pyrrolidine-3,6′-pyrrolo[2,3-d]pyrimidine]-2,5-dione] |  |  | 
15 | 247 nM | 247 nM |  |  | 168 nM | 168 nM |  |  |  |  |  |  |  | CN1CCN(c2ccc(Nc3ncc4c(n3)N(C3CCCC3)C3(CC(=O)NC3=O)C4)cc2F)CC1 (stereo not drawn) [Compound C198, 7′-cyclopentyl-2′-((3-fluoro-4-(4-methylpiperazin-1-yl)phenyl)amino)-5′,7′-dihydrospiro[pyrrolidine-3,6′-pyrrolo[2,3-d]pyrimidine]-2,5-dione] |  |  | 
16 |  |  |  |  |  |  | 0.0332 µM | 0.0332 µM |  |  |  | 0.103 µM | 0.103 µM | CN1CCN(c2ccc(Nc3ncc4c(n3)N(C3CCCCC3)C3(CCNC3=O)C4)cc2)CC1 (stereo not drawn) [Compound C199, 7′-cyclohexyl-2′-((4-(4-methylpiperazin-1-yl)phenyl)amino)-5′,7′-dihydrospiro[pyrrolidine-3,6′-pyrrolo[2,3-d]pyrimidin]-2-one] |  |  | 
17 |  |  |  |  |  |  | 0.0138 µM and 0.0102 µM | 0.0138 µM and 0.0102 µM |  |  |  | 0.069 µM | 0.069 µM | CN1CCN(c2ccc(Nc3ncc4c(n3)N(C3CCCCC3)C3(CCNC3=O)C4)cc2F)CC1 (stereo not drawn) [Compound C200, 7′-cyclohexyl-2′-((3-fluoro-4-(4-methylpiperazin-1-yl)phenyl)amino)-5′,7′-dihydrospiro[pyrrolidine-3,6′-pyrrolo[2,3-d]pyrimidin]-2-one] |  |  | 
18 |  |  |  |  |  |  | 0.0393 µM | 0.0393 µM |  |  |  | 0.115 µM | 0.115 µM | CN1CCN(c2ccc(Nc3ncc4c(n3)N(C3CCCCC3)C3(CCNC3=O)C4)cn2)CC1 (stereo not drawn) [Compound C201, 7′-cyclohexyl-2′-((6-(4-methylpiperazin-1-yl)pyridin-3-yl)amino)-5′,7′-dihydrospiro[pyrrolidine-3,6′-pyrrolo[2,3-d]pyrimidin]-2-one] |  |  | 
19 |  |  |  |  |  |  | 0.368 µM | 0.368 µM |  |  |  | 0.704 µM | 0.704 µM | CN1CCN(c2ccc(Nc3ncc4c(n3)N(C3CCCCC3)C3(CCNC3=O)C4)nc2)CC1 (stereo not drawn) [Compound C202, 7′-cyclohexyl-2′-((5-(4-methylpiperazin-1-yl)pyridin-2-yl)amino)-5′,7′-dihydrospiro[pyrrolidine-3,6′-pyrrolo[2,3-d]pyrimidin]-2-one] |  |  | 
